We go through three compounds from article PMC10900215 (JACS Au, 2024).

Entries after “also recorded” stand apart in the source; their conditions may differ.

Assay [1] concerns the target PRDM9 (Homo sapiens, UniProt Q9NQV7). Briefly: Protein methyltransferases selectivity profile. Particulars: control compound. It counts as biochemical. An excerpt:
(§1) Remaining activity [%][a]
(§2) Methyltransferase Control IC50 (M) Control […]
(§3) concerning the buffer solution containing DMSO. The closer to 100% these values are, the weaker the […]
(§4) Table S2. Hook curve amplitudes derived from the TR-FRET ternary complex formation assay with all compounds in the paper. n = number of independent measurements (biological replicates).
(§5) Compound amplitude n Compound amplitude n […]

Assay [2] concerns the target T1, METTL3-14 (Homo sapiens, UniProt Q86U44). Briefly: Protein methyltransferases selectivity profile. Format: biochemical.
From the text: as §1, §2, §3, §4, §5
Target sequence in this assay (Q86U44 whole entry): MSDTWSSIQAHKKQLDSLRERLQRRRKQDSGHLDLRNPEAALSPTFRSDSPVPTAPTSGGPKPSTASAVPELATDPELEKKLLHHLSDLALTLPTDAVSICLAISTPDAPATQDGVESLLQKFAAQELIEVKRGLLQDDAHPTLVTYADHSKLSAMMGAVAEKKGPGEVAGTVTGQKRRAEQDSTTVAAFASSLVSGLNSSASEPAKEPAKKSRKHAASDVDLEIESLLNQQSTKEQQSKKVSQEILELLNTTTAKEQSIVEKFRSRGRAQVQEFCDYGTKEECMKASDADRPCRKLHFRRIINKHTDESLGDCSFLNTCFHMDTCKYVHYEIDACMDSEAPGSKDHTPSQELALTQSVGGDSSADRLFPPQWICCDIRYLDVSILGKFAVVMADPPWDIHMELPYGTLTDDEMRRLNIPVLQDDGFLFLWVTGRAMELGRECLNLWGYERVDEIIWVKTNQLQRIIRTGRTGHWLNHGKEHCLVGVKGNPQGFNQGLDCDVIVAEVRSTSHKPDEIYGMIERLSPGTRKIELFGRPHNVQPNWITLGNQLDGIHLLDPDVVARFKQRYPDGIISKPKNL
Target sequence in this assay (Q9HCE5 whole entry partner): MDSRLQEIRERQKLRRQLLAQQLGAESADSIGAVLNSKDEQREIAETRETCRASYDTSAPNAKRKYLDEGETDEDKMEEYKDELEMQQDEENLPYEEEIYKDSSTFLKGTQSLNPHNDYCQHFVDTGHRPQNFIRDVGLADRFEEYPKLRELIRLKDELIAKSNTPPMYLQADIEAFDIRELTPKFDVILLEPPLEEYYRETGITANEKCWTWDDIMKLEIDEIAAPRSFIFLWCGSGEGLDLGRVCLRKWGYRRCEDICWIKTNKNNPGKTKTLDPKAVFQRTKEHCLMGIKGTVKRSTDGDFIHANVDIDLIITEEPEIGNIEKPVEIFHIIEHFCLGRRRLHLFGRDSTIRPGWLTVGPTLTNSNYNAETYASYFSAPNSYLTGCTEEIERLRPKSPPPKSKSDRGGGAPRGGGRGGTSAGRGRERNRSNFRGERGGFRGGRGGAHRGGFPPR

Assay [3] deals with SMYD3 (Homo sapiens, UniProt Q9H7B4). In words: Protein methyltransferases selectivity profile. It counts as biochemical. As to conditions: control compound.
SMYD3, sequence (Q9H7B4 whole entry): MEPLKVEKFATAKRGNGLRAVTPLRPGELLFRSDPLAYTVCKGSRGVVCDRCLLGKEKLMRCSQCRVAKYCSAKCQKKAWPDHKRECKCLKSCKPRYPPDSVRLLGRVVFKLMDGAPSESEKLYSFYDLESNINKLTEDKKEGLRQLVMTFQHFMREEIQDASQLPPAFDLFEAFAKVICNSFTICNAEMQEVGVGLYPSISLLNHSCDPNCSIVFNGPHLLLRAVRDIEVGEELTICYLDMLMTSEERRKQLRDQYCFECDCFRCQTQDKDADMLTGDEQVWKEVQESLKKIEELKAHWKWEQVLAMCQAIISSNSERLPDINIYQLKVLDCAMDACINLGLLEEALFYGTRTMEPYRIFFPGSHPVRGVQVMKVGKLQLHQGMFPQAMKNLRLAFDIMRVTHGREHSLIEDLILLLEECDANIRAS
From the text: as §1, §2, §3, §4, §5

Assay [4] addresses SETD2 (Homo sapiens, UniProt Q9BYW2). Briefly: Protein methyltransferases selectivity profile. Format: biochemical. As to conditions: control compound.
From the text: as §1, §2, §3, §4, §5

Assay [5] concerns the target T2, METTL3 (Homo sapiens, UniProt Q86U44+Q96SW2).
T2 construct: Human full-length METTL3-METTL14 was expressed and purified as described above; Human full-length cereblon-DDB1 and 6xHis-CUL4A-6xHis-RBX1 were coexpressed; StrepII (N); GFP (N); TEV site (N); made in house; host or cells: baculovirus/Sf9 insect cells (METTL3-METTL14, cereblon-DDB1, CUL4A-RBX1)
In words: In vitro ubiquitination assay, METTL3. Format: biochemical. As to conditions: 2, 8, and 32 μM, 30 °C, 2 h. How it is done: For the cell-free in vitro ubiquitination of METTL3-METTL14 purified E1, E2, ubiquitin, CUL4A-RBX1, Cereblon-DDB1, and METTL3-METTL14 were used. Human full-length METTL3-METTL14 was expressed and purified as described above. […] Purified recombinant human UBE1 E1 (E-305–025) was purchased from R&D Systems, UbcH5a E2 (23–029) from Merck and ubiquitin (SBB-UP0013) from South Bay Bio. For the ubiquitination reaction, components were mixed to final concentrations of 0.06 μM UBE1, 1.96 μM UbcH5a, 39 μM ubiquitin, 0.33 μM CUL4A-RBX1, 0.33 μM Cereblon-DDB1, 0.5 μM METTL3-METTL14, and different concentrations of compound 14 or me-14 (0, 2, 8, or 32 μM) in reaction buffer (50 mM Tris-HCl pH 7.6, 5 mM MgCl2, 0.2 mM CaCl2, 1 mM DTT, 100 mM NaCl, 0.01% BSA, 0.01% Triton X-100). The final reaction volume was 15 μL. After the addition of 2 mM ATP (or the equal volume of water for the control without ATP), the reaction mixture was incubated for 2 h at 30 °C. […] The signals were quantified by using the Image Studio Lite software. To determine the percentage of ubiquitinated METTL3, the fraction of unmodified METTL3 was calculated by dividing the signal of the band assigned to unmodified METTL3 by the signal of the area containing both the unmodified and (poly)ubiquitinated METTL3 and normalizing to the control without ATP. […]

Assay [6] addresses T3, Cereblon (CRBN) (Homo sapiens, UniProt Q96SW2).
T3 construct: endogenous in cells; host or cells: MOLM-13
Briefly: Cellular thermal shift assay (CETSA) in MOLM-13, Cereblon. Format: cell-based. Particulars: MOLM-13, 54 °C.

Assay [7] concerns the target T4, METTL3 (Homo sapiens, UniProt Q86U44).
T4 construct: METTL3–14 degradation up to 70% of the endogenous level; endogenous in cells; host or cells: MOLM-13, PC3, DU145
Briefly: Cellular degradation assay (Western blot), METTL3 in MOLM-13. Particulars: MOLM-13, 10 μM. It counts as cell-based. Summed up: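 24h PROTAC exposure (DMSO 0.1% v/v control), 37 °C, 5% CO2; RIPA lysis, SDS-PAGE, nitrocellulose, anti-METTL3/anti-METTL14 blots, GAPDH/β-actin loading controls, IR imaging, densitometry.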

Assay [8] concerns the target T4, METTL3. Briefly: Cellular thermal shift assay (CETSA) in MOLM-13, METTL3. Format: cell-based. As to conditions: MOLM-13, 54 °C. How it is done: One million of MOLM-13 cells were suspended in 100 μL of PBS (10010023, Thermo Fisher Scientific) containing 2× protease inhibitor cocktail (11697498001, Roche), for each condition tested. Cells were incubated with compounds or DMSO control (1% (v/v)) for 1 h at 37 °C. They were then heat treated at 54 °C in a thermoblock for 3 min, followed by cooling to room temperature (3 min). Next, samples were lysed by threefreeze–thaw cycles in liquid nitrogen and centrifuge at 16000 g for 30 min, 4 °C. Equal volumes of control and tested samples (12 μL) were analyzed by Western blot. The changes in the amount of METTL3 protein (after normalization for β-actin and/or GAPDH) were monitored by performing densitometry in Image Studio Lite software and analyzed in GraphPad Prism 9.

The target in assay [9] is T1, METTL3-14. Briefly: Cellular degradation assay (Western blot), METTL3 and/or METTL14 (METTL3–14) in MOLM-13. Format: cell-based. On the set-up: METTL3–14 degradation up to 70% of the endogenous level; endogenous in cells; host or cells: MOLM-13, KASUMI-1, THP-1, NOMO-1. How it is done:
MOLM-13, NOMO-1, THP-1, Kasumi-1, PC3, and DU145 cell lines were obtained from DSMZ-German Collection of Microorganisms and Cell Cultures GmbH. […] All cell lines were tested negative for mycoplasma contamination (PCR-based assay by Microsynth, Switzerland).
METTL3 (and METTL14) protein degradation was monitored by Western blot. Cells were treated with the indicated concentration of PROTACs or DMSO control (0.1% (v/v)) for 24h, 37 °C with 5% CO2. […] After SDS-PAGE, proteins were transferred to a nitrocellulose membrane, blocked (with 5% milk, 0.5% BSA in TBST buffer), and incubated overnight with primary antibodies. […] Densitometry was performed in Image Studio Lite software and analyzed in GraphPad Prism 9.
Target sequence in this assay (Q86U44 2-580 limits assumed): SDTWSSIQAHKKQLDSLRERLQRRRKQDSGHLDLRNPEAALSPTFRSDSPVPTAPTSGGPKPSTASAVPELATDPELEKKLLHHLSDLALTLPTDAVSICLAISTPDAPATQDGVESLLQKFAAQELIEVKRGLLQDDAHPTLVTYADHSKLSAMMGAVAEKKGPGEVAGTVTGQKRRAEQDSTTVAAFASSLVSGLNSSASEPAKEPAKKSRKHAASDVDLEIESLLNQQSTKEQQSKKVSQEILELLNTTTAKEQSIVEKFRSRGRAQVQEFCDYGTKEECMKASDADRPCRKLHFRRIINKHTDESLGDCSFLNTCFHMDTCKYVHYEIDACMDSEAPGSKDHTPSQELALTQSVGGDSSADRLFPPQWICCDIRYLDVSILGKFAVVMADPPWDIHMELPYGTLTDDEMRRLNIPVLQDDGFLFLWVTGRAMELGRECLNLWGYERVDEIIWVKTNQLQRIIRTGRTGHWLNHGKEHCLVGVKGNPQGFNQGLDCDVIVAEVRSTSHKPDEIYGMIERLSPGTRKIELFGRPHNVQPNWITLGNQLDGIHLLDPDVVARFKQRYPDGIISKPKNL
Target sequence in this assay (Q9HCE5 whole entry partner): as the sequence (Q9HCE5 whole entry partner) above

T4 sequence (Q86U44 2-580 limits assumed): as the sequence (Q86U44 2-580 limits assumed) above
T4 sequence (Q9HCE5 whole entry partner): as the sequence (Q9HCE5 whole entry partner) above
T2 sequence (Q86U44 whole entry): as the sequence (Q86U44 whole entry) above
T2 sequence (Q9HCE5 whole entry partner): as the sequence (Q9HCE5 whole entry partner) above
T2 sequence (Q96SW2 whole entry): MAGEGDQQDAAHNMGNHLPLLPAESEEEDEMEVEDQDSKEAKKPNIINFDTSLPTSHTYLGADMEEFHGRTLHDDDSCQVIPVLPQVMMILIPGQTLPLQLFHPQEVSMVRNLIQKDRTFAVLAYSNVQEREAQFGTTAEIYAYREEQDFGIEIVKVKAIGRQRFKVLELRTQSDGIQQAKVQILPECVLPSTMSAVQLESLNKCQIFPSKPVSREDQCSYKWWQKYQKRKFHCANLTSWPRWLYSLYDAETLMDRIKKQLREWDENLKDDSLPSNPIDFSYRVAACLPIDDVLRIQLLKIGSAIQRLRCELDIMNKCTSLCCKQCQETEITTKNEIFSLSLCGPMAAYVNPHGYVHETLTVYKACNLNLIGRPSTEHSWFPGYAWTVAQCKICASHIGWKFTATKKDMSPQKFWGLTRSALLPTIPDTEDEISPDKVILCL
T2 sequence (Q16531 whole entry partner): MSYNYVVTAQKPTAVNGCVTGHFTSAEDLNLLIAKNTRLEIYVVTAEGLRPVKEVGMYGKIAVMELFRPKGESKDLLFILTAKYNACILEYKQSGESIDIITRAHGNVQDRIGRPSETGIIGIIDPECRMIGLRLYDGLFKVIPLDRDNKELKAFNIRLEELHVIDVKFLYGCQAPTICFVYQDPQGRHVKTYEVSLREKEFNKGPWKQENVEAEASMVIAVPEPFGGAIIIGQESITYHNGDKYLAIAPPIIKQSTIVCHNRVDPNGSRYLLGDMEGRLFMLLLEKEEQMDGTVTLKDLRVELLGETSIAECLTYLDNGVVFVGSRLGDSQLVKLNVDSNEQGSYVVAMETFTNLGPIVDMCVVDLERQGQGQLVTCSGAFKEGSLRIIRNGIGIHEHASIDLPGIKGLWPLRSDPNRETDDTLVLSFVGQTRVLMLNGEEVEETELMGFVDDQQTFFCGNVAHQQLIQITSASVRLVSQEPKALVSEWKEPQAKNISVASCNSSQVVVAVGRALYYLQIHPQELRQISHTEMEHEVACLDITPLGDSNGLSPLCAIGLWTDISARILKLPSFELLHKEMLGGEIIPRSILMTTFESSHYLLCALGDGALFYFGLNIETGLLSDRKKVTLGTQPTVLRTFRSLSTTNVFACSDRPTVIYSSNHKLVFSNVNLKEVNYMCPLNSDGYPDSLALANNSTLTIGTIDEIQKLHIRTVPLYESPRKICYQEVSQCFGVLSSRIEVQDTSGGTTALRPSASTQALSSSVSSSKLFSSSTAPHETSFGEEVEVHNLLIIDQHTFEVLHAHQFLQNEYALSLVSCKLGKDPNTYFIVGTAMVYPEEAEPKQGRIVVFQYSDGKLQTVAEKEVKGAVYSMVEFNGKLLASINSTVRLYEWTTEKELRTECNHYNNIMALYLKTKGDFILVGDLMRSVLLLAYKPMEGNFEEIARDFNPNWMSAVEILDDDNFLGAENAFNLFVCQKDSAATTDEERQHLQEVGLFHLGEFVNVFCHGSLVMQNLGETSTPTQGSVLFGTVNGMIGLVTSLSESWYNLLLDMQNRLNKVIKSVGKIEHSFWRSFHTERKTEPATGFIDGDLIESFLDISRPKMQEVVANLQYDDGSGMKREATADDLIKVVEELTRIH
T2 sequence (Q13619 whole entry partner): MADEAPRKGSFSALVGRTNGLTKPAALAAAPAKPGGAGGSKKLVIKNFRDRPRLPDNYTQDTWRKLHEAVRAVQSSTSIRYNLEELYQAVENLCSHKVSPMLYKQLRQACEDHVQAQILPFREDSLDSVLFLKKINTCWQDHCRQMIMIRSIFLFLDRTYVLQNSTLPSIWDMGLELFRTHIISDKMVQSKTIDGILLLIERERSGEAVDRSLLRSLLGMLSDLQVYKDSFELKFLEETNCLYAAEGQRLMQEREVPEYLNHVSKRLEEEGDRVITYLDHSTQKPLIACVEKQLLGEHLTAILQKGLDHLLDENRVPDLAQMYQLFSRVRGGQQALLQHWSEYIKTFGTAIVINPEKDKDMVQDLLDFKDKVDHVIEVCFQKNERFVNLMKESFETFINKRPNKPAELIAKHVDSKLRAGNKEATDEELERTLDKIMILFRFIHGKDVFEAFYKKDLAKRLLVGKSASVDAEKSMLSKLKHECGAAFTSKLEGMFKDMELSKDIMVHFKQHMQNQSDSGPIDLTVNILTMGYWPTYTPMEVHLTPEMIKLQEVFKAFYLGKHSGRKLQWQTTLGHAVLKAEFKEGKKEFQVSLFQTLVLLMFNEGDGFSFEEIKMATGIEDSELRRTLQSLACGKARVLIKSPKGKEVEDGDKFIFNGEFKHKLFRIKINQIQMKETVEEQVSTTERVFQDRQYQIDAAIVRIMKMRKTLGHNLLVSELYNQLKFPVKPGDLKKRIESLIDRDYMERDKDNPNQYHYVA
T2 sequence (P62877 whole entry partner): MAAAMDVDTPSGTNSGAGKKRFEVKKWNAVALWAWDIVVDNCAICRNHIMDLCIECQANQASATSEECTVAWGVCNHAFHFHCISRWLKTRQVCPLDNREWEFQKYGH
T3 sequence (Q96SW2 whole entry): as the sequence (Q96SW2 whole entry) above

The compound `CN1C(=O)[C@@]23C[C@]4([C@]56C[C@@]78SS[C@@](CO)(C(=O)N7[C@H]5Nc5ccccc56)N(C)C8=O)c5ccccc5N[C@@H]4N2C(=O)[C@]1(CO)SS3` [Chaetocin] returned an IC50 in assay [1] of 905 nM.
As for `Nc1ncnc2c1ncn2[C@@H]1O[C@H](CSCC[C@H](N)C(=O)O)[C@@H](O)[C@H]1O` [SAH, S-(5’-adenosyl)-L-homocysteine], the IC50 in assay [2] came to 153 nM; in [3], 8480 nM; in [4], 1380 nM.
Turning to `CN1C(=O)CCC(N2C(=O)c3cccc(NCCCC(=O)NCc4cccc(CNc5cc(N6CCC7(CC6)CN(c6cc(F)c(CN8CCC(C)(C)CC8)cc6F)CC(=O)N7)ncn5)c4)c3C2=O)C1=O` (stereo not shown) [me-14], the “ubiquitination of METTL3 compared to the control without compound” value in [5] is “does not increase”. The “stabilization of Cereblon (CETSA)” value in assay [6] is recorded as “not of CRBN”. In assay [7], the METTL3 levels result is on record as “increased METTL3 levels”. Also, in assay [8], the “stabilization of METTL3 (CETSA)” value was “stabilize METTL3 in a concentration-dependent manner; also recorded: stabilization of METTL3”. Further, the “degradation of METTL3 and/or METTL14” value in assay [9] (MOLM-13, 2 μM, 24 h, Western blot) is reported as “did not show any METTL3–14 degradation”. Further, the “degradation of METTL3 and METTL14, concentration dependence” value in assay [9] (MOLM-13, five concentrations) was “no degradation”.
